Measured values: US12331026B2 (NiKang Therapeutics, Inc., priority 2022, dated 2025)

Biological target: T1, CDK2 (Homo sapiens, UniProt P24941)
T1 construct: endogenous in cells; host or cells: OVCAR3 cells
Assay: Phospho-RB measurement in OVCAR3 cells (HTRF phospho-RB S807/811)
Assay type: cell-based
Conditions: phosphorylation of RB protein at S807/811, HTRF, 24 h compound treatment, 0.3 to 10,000 nM, read-out: pRb (uM)
Summary of the method: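 IC50 values come from four-parameter logistic fits of the DMSO-normalised 665/620 nm TR-FRET ratio for phospho-RB (S807/811). Antibody detection ran 4 h at room temperature.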

IC50 | SMILES
0.051 µM | CC1(C#N)CC2CCC(C1)N2c1nc(-c2cccc(NS(=O)(=O)c3c(F)cccc3C(F)(F)F)c2F)c(-c2ccnc(NC3CC4(C3)CS(=O)(=O)C4)n2)s1 (centres unmarked) [Example 151, N-(3-(2-(3-cyano-3-methyl-8-azabicyclo[3.2.1]octan-8-yl)-5-(2-((2,2-dioxido-2-thiaspiro[3.3]heptan-6-yl)amino)pyrimidin-4-yl)thiazol-4-yl)-2-fluorophenyl)-2-fluoro-6-(trifluoromethyl)benzenesulfonamide]
0.15 µM | O=S1(=O)C[C@H]2C[C@H](Nc3nccc(-c4sc(C56CC(C5)C6)nc4-c4cccc(NS(=O)(=O)c5c(F)cccc5F)c4F)n3)C[C@H]2C1 [Example 152, N-(3-(2-(bicyclo[1.1.1]pentan-1-yl)-5-(2-(((3aR,5s,6aS)-2,2-dioxidohexahydro-1H-cyclopenta[c]thiophen-5-yl)amino)pyrimidin-4-yl)thiazol-4-yl)-2-fluorophenyl)-2,6-difluorobenzenesulfonamide]
0.06 µM | CC1C2(CC(Nc3nccc(-c4sc(C56CC(C5)C6)nc4-c4cccc(NS(=O)(=O)c5c(F)cccc5F)c4F)n3)C2)CS1(=O)=O (centres unmarked) [Example 153, N-(3-(2-(bicyclo[1.1.1]pentan-1-yl)-5-(2-((1-methyl-2,2-dioxido-2-thiaspiro[3.3]heptan-6-yl)amino)pyrimidin-4-yl)thiazol-4-yl)-2-fluorophenyl)-2,6-difluorobenzenesulfonamide]
0.095 µM | CC1C2(CC(Nc3nccc(-c4sc(C56CC(C5)C6)nc4-c4cccc(NS(=O)(=O)c5c(F)cccc5F)c4F)n3)C2)C(C)S1(=O)=O (centres unmarked) [Example 154, N-(3-(2-(bicyclo[1.1.1]pentan-1-yl)-5-(2-((1,3-dimethyl-2,2-dioxido-2-thiaspiro[3.3]heptan-6-yl)amino)pyrimidin-4-yl)thiazol-4-yl)-2-fluorophenyl)-2,6-difluorobenzenesulfonamide]

Second part, the compound before the results:

SMILES | IC50
[2H]C([2H])([2H])N1CC2CCC(C1)N2c1nc(-c2cccc(NS(=O)(=O)c3c(F)cccc3F)c2F)c(-c2ccnc(NC3CC4(C3)CS(=O)(=O)C4)n2)s1 [Example 137, N-(3-(5-(2-((2,2-dioxido-2-thiaspiro[3.3]heptan-6-yl)amino)-pyrimidin-4-yl)-2-(3-(methyl-d3)-3,8-diazabicyclo[3.2.1]octan-8-yl)thiazol-4-yl)-2-fluorophenyl)-2,6-difluorobenzenesulfonamide] | 0.1 µM
O=S1(=O)CC2(CC(Nc3nccc(-c4sc(N5C6CCC5CN(CC(F)(F)F)C6)nc4-c4cccc(NS(=O)(=O)c5c(F)cccc5F)c4F)n3)C2)C1 [Example 139, N-(3-(5-(2-((2,2-dioxido-2-thiaspiro[3.3]heptan-6-yl)amino)-pyrimidin-4-yl)-2-(3-(2,2,2-trifluoroethyl)-3,8-diazabicyclo-[3.2.1]octan-8-yl)thiazol-4-yl)-2-fluorophenyl)-2,6-difluoro-benzenesulfonamide] | 0.13 µM
O=S1(=O)CC2(CC(Nc3nccc(-c4sc(N5C6CCC5CNC6)nc4-c4cccc(NS(=O)(=O)c5c(F)cccc5F)c4F)n3)C2)C1 [Example 141, N-(3-(2-(3,8-diazabicyclo[3.2.1]octan-8-yl)-5-(2-((2,2-dioxido-2-thiaspiro[3.3]heptan-6-yl)amino)pyrimidin-4-yl)thiazol-4-yl)-2-fluorophenyl)-2,6-difluorobenzenesulfonamide] | 6.7 µM
O=S1(=O)CC2(CC(Nc3nccc(-c4sc(N5C6CCC5CN(CCC(F)(F)F)C6)nc4-c4cccc(NS(=O)(=O)c5c(F)cccc5F)c4F)n3)C2)C1 [Example 142, N-(3-(5-(2-((2,2-dioxido-2-thiaspiro[3.3]heptan-6-yl)amino)-pyrimidin-4-yl)-2-(3-(3,3,3-trifluoropropyl)-3,8-diazabicyclo-[3.2.1]octan-8-yl)thiazol-4-yl)-2-fluorophenyl)-2,6-difluorobenzenesulfonamide] | 0.32 µM
O=S1(=O)CC2(CC(Nc3nccc(-c4sc(N5C6CCC5CN(C5COC5)C6)nc4-c4cccc(NS(=O)(=O)c5c(F)cccc5F)c4F)n3)C2)C1 [Example 144, N-(3-(5-(2-((2,2-dioxido-2-thiaspiro[3.3]heptan-6-yl)amino)-pyrimidin-4-yl)-2-(3-(oxetan-3-yl)-3,8-diazabicyclo[3.2.1]octan-8-yl)thiazol-4-yl)-2-fluorophenyl)-2,6-difluorobenzenesulfonamide] | 0.24 µM
CS(=O)(=O)[C@H]1CC[C@@H](Nc2nccc(-c3sc(C45CC(Cl)(C4)C5)nc3-c3cccc(NS(=O)(=O)c4c(F)cccc4C(F)(F)F)c3F)n2)CC1 [Example 146, N-(3-(2-(3-chlorobicyclo[1.1.1]pentan-1-yl)-5-(2-(((1s,4s)-4-(methylsulfonyl)cyclohexyl)amino)pyrimidin-4-yl)thiazol-4-yl)-2-fluorophenyl)-2-fluoro-6-(trifluoromethyl)benzenesulfonamide] | 0.2 µM
O=S1(=O)CC2(CC(Nc3nccc(-c4sc(N5C6CCC5CN(C5CCC(F)(F)CC5)C6)nc4-c4cccc(NS(=O)(=O)c5c(F)cccc5F)c4F)n3)C2)C1 [Example 147, N-(3-(2-(3-(4,4-difluorocyclohexyl)-3,8-diazabicyclo[3.2.1]octan-8-yl)-5-(2-((2,2-dioxido-2-thiaspiro[3.3]heptan-6-yl)amino)pyrimidin-4-yl)thiazol-4-yl)-2-fluorophenyl)-2,6-difluorobenzenesulfonamide] | 0.91 µM
O=S1(=O)CC2(CC(Nc3nccc(-c4sc(N5C6CCC5CN(C5CCOCC5)C6)nc4-c4cccc(NS(=O)(=O)c5c(F)cccc5F)c4F)n3)C2)C1 [Example 148, N-(3-(5-(2-((2,2-dioxido-2-thiaspiro[3.3]heptan-6-yl)amino)pyrimidin-4-yl)-2-(3-(tetrahydro-2H-pyran-4-yl)-3,8-diazabicyclo[3.2.1]octan-8-yl)thiazol-4-yl)-2-fluorophenyl)-2,6-difluorobenzenesulfonamide] | 0.4 µM
O=S1(=O)CC2(CC(Nc3nccc(-c4sc(N5C6CCC5CN(C5CC(F)(F)C5)C6)nc4-c4cccc(NS(=O)(=O)c5c(F)cccc5C(F)(F)F)c4F)n3)C2)C1 [Example 149, N-(3-(2-(3-(3,3-difluorocyclobutyl)-3,8-diazabicyclo[3.2.1]octan-8-yl)-5-(2-((2,2-dioxido-2-thiaspiro[3.3]heptan-6-yl)amino)pyrimidin-4-yl)thiazol-4-yl)-2-fluorophenyl)-2-fluoro-6-(trifluoromethyl)benzenesulfonamide] | 0.09 µM
O=S1(=O)CC2(CC(Nc3nccc(-c4sc(C56CC(Cl)(C5)C6)nc4-c4cccc(NS(=O)(=O)c5c(F)cccc5C(F)(F)F)c4F)n3)C2)C1 [Example 150, N-(3-(2-(3-chlorobicyclo[1.1.1]pentan-1-yl)-5-(2-((2,2-dioxido-2-thiaspiro[3.3]heptan-6-yl)amino)pyrimidin-4-yl)thiazol-4-yl)-2-fluorophenyl)-2-fluoro-6-(trifluoromethyl)benzenesulfonamide] | 0.17 µM
